Test results published in US9670147B2, “Antioxidant inflammation modulators: oleanolic acid derivatives with amino and other modifications at C-17” (REATA PHARMACEUTICALS, INC., priority 2008, dated 2017).
pIC50: −log10 of the molar value.

Experiments:
[1] = test system: IFNγ-induced NO production in RAW264.7 macrophages; assay: Suppression of IFNγ-induced NO production (Griess reagent); type: cell-based, mouse; conditions: Mus musculus, 2 h pre-treatment, then 20 ng/ml IFNγ for 24 hours
Procedure: (§1) FIGS. 1-34. Inhibition of NO Production. RAW264.7 macrophages were pre-treated with DMSO or drugs at various concentrations (nM) for 2 hours, then treated with 20 ng/ml IFNγ for 24 hours. NO concentration in media was determined using the Griess reagent system; cell viability was determined using WST-1 reagent. FIGS. 49-52. Inhibition of NO Production. RAW264.7 macrophages were pre-treated with DMSO or drugs at various concentrations (nM) for 2 hours, then treated with 20 ng/ml IFNγ for 24 hours. NO concentration in media was determined using the Griess reagent system; cell viability was determined using WST-1 reagent. RAW264.7 macrophages were pre-treated with DMSO or drugs for 2 hours, then treated with recombinant mouse IFNγ (Sigma) for 24 hours. NO concentration in media was determined using the Griess reagent system (Promega). Cell viability was determined using WST-1 reagent (Roche).

RAW264.7 macrophages = assay: Cell viability, WST-1 reagent; type: cell-based, mouse; conditions: Mus musculus, 2 h pre-treatment, then 20 ng/ml IFNγ for 24 hours
Procedure: as §1

Compound: CC1(C)CC[C@]2(NC(=O)OC3CCOC3)CC[C@]3(C)[C@H](C(=O)C[C@@H]4[C@@]5(C)C=C(C#N)C(=O)C(C)(C)[C@@H]5CC[C@]43C)[C@@H]2C1 (stereo partly drawn) [Compound 63265, tetrahydrofuran-3-yl(4aS,6aR,6bR,8aR,12aR,12bR,14aR,14bS)-11-cyano-2,2,6a,6b,9,9,12a-heptamethyl-10,14-dioxo-1,2,3,4,4a,5,6,6a,6b,7,8,8a,9,10,12a,12b,13,14,14a,14b-icosahydropicen-4a-ylcarbamate]
- pIC50 [1]: ~7.00
- pIC50 (RAW264.7 macrophages): < 6.70

Compound: CN(C)C(=O)N[C@]12CCC(C)(C)C[C@H]1[C@H]1C(=O)C=C3[C@@]4(C)C=C(C#N)C(=O)C(C)(C)[C@@H]4CC[C@@]3(C)[C@]1(C)CC2 [Compound 63180, 3-((4aS,6aR,6bS,8aR,12aS,14aR,14bS)-11-cyano-2,2,6a,6b,9,9,12a-heptamethyl-10,14-dioxo-1,2,3,4,4a,5,6,6a,6b,7,8,8a,9,10,12a,14,14a,14b-octadecahydropicen-4a-yl)-1,1-dimethylurea]
- pIC50 [1]: 7.87
- pIC50 (RAW264.7 macrophages): 6.70

Compound: CC1(C)CC[C@]2(NC(=O)N3CCOCC3)CC[C@]3(C)[C@H](C(=O)C=C4[C@@]5(C)C=C(C#N)C(=O)C(C)(C)[C@@H]5CC[C@]43C)[C@@H]2C1 [Compound 63188, N-((4aS,6aR,6bS,8aR,12aS,14aR,14bS)-11-cyano-2,2,6a,6b,9,9,12a-heptamethyl-10,14-dioxo-1,2,3,4,4a,5,6,6a,6b,7,8,8a,9,10,12a,14,14a,14b-octadecahydropicen-4a-yl)morpholine-4-carboxamide]
- pIC50 [1]: 7.57
- pIC50 (RAW264.7 macrophages): < 6.70

Compound: CC1(C)CC[C@]2(NC(=O)C(F)(F)F)CC[C@]3(C)[C@H](C(=O)C[C@@H]4[C@@]5(C)C=C(C#N)C(=O)C(C)(C)[C@@H]5CC[C@]43C)[C@@H]2C1 [Compound 63322, N-((4aS,6aR,6bR,8aR,12aR,12bR,14aR,14bS)-11-cyano-2,2,6a,6b,9,9,12a-heptamethyl-10,14-dioxo-1,2,3,4,4a,5,6,6a,6b,7,8,8a,9,10,12a,12b,13,14,14a,14b-icosahydropicen-4a-yl)-2,2,2-trifluoroacetamide]
- pIC50 [1]: ~7.30

Compound: CCN[C@]12CCC(C)(C)C[C@H]1[C@H]1C(=O)C[C@@H]3[C@@]4(C)C=C(C#N)C(=O)C(C)(C)[C@@H]4CC[C@@]3(C)[C@]1(C)CC2 [Compound 63238, (4aR,6aR,6bR,8aS,12aS,12bR,14aR,14bR)-8a-(ethylamino)-4,4,6a,6b,11,11,14b-heptamethyl-3,13-dioxo-3,4,4a,5,6,6a,6b,7,8,8a,9,10,11,12,12a,12b,13,14,14a,14b-icosahydropicene-2-carbonitrile]
- pIC50 [1]: ~6.92
- pIC50 (RAW264.7 macrophages): < 6.70

Compound: CC(=O)N[C@]12CCC(C)(C)C[C@H]1[C@H]1C(=O)C=C3[C@@]4(C)C=C(C#N)C(=O)C(C)(C)[C@@H]4CC[C@@]3(C)[C@]1(C)CC2 [Compound 63170, N-((4aS,6aR,6bS,8aR,12aS,14aR,14bS)-11-cyano-2,2,6a,6b,9,9,12a-heptamethyl-10,14-dioxo-1,2,3,4,4a,5,6,6a,6b,7,8,8a,9,10,12a,14,14a,14b-octadecahydropicen-4a-yl)acetamide]
- pIC50 [1]: 7.97
- pIC50 (RAW264.7 macrophages): < 6.70

Compound: CC(=O)N[C@]12CCC(C)(C)C[C@H]1[C@H]1C(=O)C[C@@H]3[C@@]4(C)C=C(C#N)C(=O)C(C)(C)[C@@H]4CC[C@@]3(C)[C@]1(C)CC2 [Compound 63321, N-((4aS,6aR,6bR,8aR,12aR,12bR,14aR,14bS)-11-cyano-2,2,6a,6b,9,9,12a-heptamethyl-10,14-dioxo-1,2,3,4,4a,5,6,6a,6b,7,8,8a,9,10,12a,12b,13,14,14a,14b-icosahydropicen-4a-yl)acetamide]
- pIC50 [1]: ~7.15

Compound: CC1(C)CC[C@]2(NCC#N)CC[C@]3(C)[C@H](C(=O)C[C@@H]4[C@@]5(C)C=C(C#N)C(=O)C(C)(C)[C@@H]5CC[C@]43C)[C@@H]2C1 [Compound 63222, (4aR,6aR,6bR,8aS,12aS,12bR,14aR,14bR)-8a-(cyanomethylamino)-4,4,6a,6b,11,11,14b-heptamethyl-3,13-dioxo-3,4,4a,5,6,6a,6b,7,8,8a,9,10,11,12,12a,12b,13,14,14a,14b-icosahydropicene-2-carbonitrile]
- pIC50 [1]: ~7.35
- pIC50 (RAW264.7 macrophages): < 6.70

Compound: CC1(C)CC[C@]2(NC(=O)CC(F)(F)F)CC[C@]3(C)[C@H](C(=O)C=C4[C@@]5(C)C=C(C#N)C(=O)C(C)(C)[C@@H]5CC[C@]43C)[C@@H]2C1 [Compound 63179, N-((4aS,6aR,6bS,8aR,12aS,14aR,14bS)-11-cyano-2,2,6a,6b,9,9,12a-heptamethyl-10,14-dioxo-1,2,3,4,4a,5,6,6a,6b,7,8,8a,9,10,12a,14,14a,14b-octadecahydropicen-4a-yl)-3,3,3-trifluoropropanamide]
- pIC50 [1]: 7.80
- pIC50 (RAW264.7 macrophages): 7.00

Compound: CC1(C)CC[C@]2(NC(=O)C(F)(F)F)CC[C@]3(C)[C@H](C(=O)C=C4[C@@]5(C)C=C(C#N)C(=O)C(C)(C)[C@@H]5CC[C@]43C)[C@@H]2C1 [Compound 63171, N-((4aS,6aR,6bS,8aR,12aS,14aR,14bS)-11-cyano-2,2,6a,6b,9,9,12a-heptamethyl-10,14-dioxo-1,2,3,4,4a,5,6,6a,6b,7,8,8a,9,10,12a,14,14a,14b-octadecahydropicen-4a-yl)-2,2,2-trifluoroacetamide]
- pIC50 [1]: 7.92
- pIC50 (RAW264.7 macrophages): 7.05

Compound: CC1(C)CC[C@]2(NC(=O)OCc3ccccc3)CC[C@]3(C)[C@H](C(=O)C=C4[C@@]5(C)C=C(C#N)C(=O)C(C)(C)[C@@H]5CC[C@]43C)[C@@H]2C1 [Compound 63174, benzyl-(4aS,6aR,6bS,8aR,12aS,14aR,14bS)-11-cyano-2,2,6a,6b,9,9,12a-heptamethyl-10,14-dioxo-1,2,3,4,4a,5,6,6a,6b,7,8,8a,9,10,12a,14,14a,14b-octadecahydropicen-4a-ylcarbamate]
- pIC50 [1]: 7.59
- pIC50 (RAW264.7 macrophages): 7.10

Compound: CN(C)[C@]12CCC(C)(C)C[C@H]1[C@H]1C(=O)C=C3[C@@]4(C)C=C(C#N)C(=O)C(C)(C)[C@@H]4CC[C@@]3(C)[C@]1(C)CC2 [Compound 63245, (4aR,6aS,6bR,8aS,12aS,12bR,14bS)-8a-(dimethylamino)-4,4,6a,6b,11,11,14b-heptamethyl-3,13-dioxo-3,4,4a,5,6,6a,6b,7,8,8a,9,10,11,12,12a,12b,13,14b-octadecahydropicene-2-carbonitrile]
- pIC50 [1]: 7.48
- pIC50 (RAW264.7 macrophages): < 6.70

Compound: CC1(C)CC[C@]2(NC(=O)Cc3ccccc3)CC[C@]3(C)[C@H](C(=O)C=C4[C@@]5(C)C=C(C#N)C(=O)C(C)(C)[C@@H]5CC[C@]43C)[C@@H]2C1 [Compound 63244, N-((4aS,6aR,6bS,8aR,12aS,14aR,14bS)-11-cyano-2,2,6a,6b,9,9,12a-heptamethyl-10,14-dioxo-1,2,3,4,4a,5,6,6a,6b,7,8,8a,9,10,12a,14,14a,14b-octadecahydropicen-4a-yl)-2-phenylacetamide]
- pIC50 [1]: 8.00
- pIC50 (RAW264.7 macrophages): 6.70

Compound: C=CCOC(=O)N[C@]12CCC(C)(C)C[C@H]1[C@H]1C(=O)C=C3[C@@]4(C)C=C(C#N)C(=O)C(C)(C)[C@@H]4CC[C@@]3(C)[C@]1(C)CC2 [Compound 63186, allyl-(4aS,6aR,6bS,8aR,12aS,14aR,14bS)-11-cyano-2,2,6a,6b,9,9,12a-heptamethyl-10,14-dioxo-1,2,3,4,4a,5,6,6a,6b,7,8,8a,9,10,12a,14,14a,14b-octadecahydropicen-4a-ylcarbamate]
- pIC50 [1]: 8.22 to 8.52
- pIC50 (RAW264.7 macrophages): 7.00

Compound: CCOC(=O)N[C@]12CCC(C)(C)C[C@H]1[C@H]1C(=O)C=C3[C@@]4(C)C=C(C#N)C(=O)C(C)(C)[C@@H]4CC[C@@]3(C)[C@]1(C)CC2 [Compound 63168, ethyl-(4aS,6aR,6bS,8aR,12aS,14aR,14bS)-11-cyano-2,2,6a,6b,9,9,12a-heptamethyl-10,14-dioxo-1,2,3,4,4a,5,6,6a,6b,7,8,8a,9,10,12a,14,14a,14b-octadecahydropicen-4a-ylcarbamate]
- pIC50 [1]: 8.49
- pIC50 (RAW264.7 macrophages): 6.82

Compound: CCNC(=O)N[C@]12CCC(C)(C)C[C@H]1[C@H]1C(=O)C=C3[C@@]4(C)C=C(C#N)C(=O)C(C)(C)[C@@H]4CC[C@@]3(C)[C@]1(C)CC2 [Compound 63173, 1-((4aS,6aR,6bS,8aR,12aS,14aR,14bS)-11-cyano-2,2,6a,6b,9,9,12a-heptamethyl-10,14-dioxo-1,2,3,4,4a,5,6,6a,6b,7,8,8a,9,10,12a,14,14a,14b-octadecahydropicen-4a-yl)-3-ethylurea]
- pIC50 [1]: 7.51
- pIC50 (RAW264.7 macrophages): < 6.70

Compound: CC1(C)CC[C@]2(NC(=O)Nc3ccccc3)CC[C@]3(C)[C@H](C(=O)C=C4[C@@]5(C)C=C(C#N)C(=O)C(C)(C)[C@@H]5CC[C@]43C)[C@@H]2C1 [Compound 63249, 1-((4aS,6aR,6bS,8aR,12aS,14aR,14bS)-11-cyano-2,2,6a,6b,9,9,12a-heptamethyl-10,14-dioxo-1,2,3,4,4a,5,6,6a,6b,7,8,8a,9,10,12a,14,14a,14b-octadecahydropicen-4a-yl)-3-phenylurea]
- pIC50 (RAW264.7 macrophages): 7.30

Compound: COC(=O)N[C@]12CCC(C)(C)C[C@H]1[C@H]1C(=O)C[C@@H]3[C@@]4(C)C=C(C#N)C(=O)C(C)(C)[C@@H]4CC[C@@]3(C)[C@]1(C)CC2 [Compound 63328, methyl (4aS,6aR,6bR,8aR,12aR,12bR,14aR,14bS)-11-cyano-2,2,6a,6b,9,9,12a-heptamethyl-10,14-dioxo-1,2,3,4,4a,5,6,6a,6b,7,8,8a,9,10,12a,12b,13,14,14a,14b-icosahydropicen-4a-ylcarbamate]
- pIC50 [1]: ~7.60

Compound: CNC(=O)N[C@]12CCC(C)(C)C[C@H]1[C@H]1C(=O)C[C@@H]3[C@@]4(C)C=C(C#N)C(=O)C(C)(C)[C@@H]4CC[C@@]3(C)[C@]1(C)CC2 [Compound 63327, 1-((4aS,6aR,6bR,8aR,12aR,12bR,14aR,14bS)-11-cyano-2,2,6a,6b,9,9,12a-heptamethyl-10,14-dioxo-1,2,3,4,4a,5,6,6a,6b,7,8,8a,9,10,12a,12b,13,14,14a,14b-icosahydropicen-4a-yl)-3-methylurea]
- pIC50 [1]: ~7.00
